Measurements reported in ChEMBL document CHEMBL1154724, “Synthesis and antimicrobial activity evaluation of new 1,2,4-triazoles and 1,3,4-thiadiazoles bearing imidazo[2,1-b]thiazole moiety” (2010).
In brackets after ≈: the same amount, converted by molar mass. Activity calls are given as the source filed them. The calls are words filed in the database; no cut-off is given here.

Tests used:
Type in all cases: functional
[1] = test system: Mycobacterium tuberculosis; assay: Antimycobacterial activity against Mycobacterium tuberculosis H37Rv ATCC 27294 by microplate alamar blue assay
[2] = test system: Staphylococcus aureus; assay: Antibacterial activity against Staphylococcus aureus ATCC 29213 after 16 to 20 hrs by microbroth dilution method
[3] = test system: Pseudomonas aeruginosa; assay: Antibacterial activity against Pseudomonas aeruginosa ATCC 27853 after 16 to 20 hrs by microbroth dilution method
[4] = test system: Escherichia coli; assay: Antibacterial activity against Escherichia coli ATCC 25922 after 16 to 20 hrs by microbroth dilution method
[5] = test system: Candida albicans; assay: Antifungal activity against Candida albicans ATCC 10231 after 48 hrs by microbroth dilution method; details: ATCC 10231, 48 h
[6] = test system: Candida parapsilosis; assay: Antifungal activity against Candida parapsilosis ATCC 22019 after 48 hrs by microbroth dilution method; details: Lodderomyces parapsilosis, ATCC 22019, 48 h
[7] = test system: Pichia kudriavzevii; assay: Antifungal activity against Candida krusei ATCC 6258 after 48 hrs by microbroth dilution method; details: ATCC 6258, 48 h
[8] = test system: Nannizzia gypsea; assay: Antifungal activity against Microsporum gypseum NCPF 580 after 7 days by microbroth dilution method; details: NCPF 580, 168 h, read-out: MIC100
[9] = test system: Trichophyton tonsurans; assay: Antifungal activity against Trichophyton tonsurans NCPF 245 after 7 days by microbroth dilution method; details: NCPF 245, 168 h, read-out: MIC100
[10] = test system: Trichophyton erinacei; assay: Antifungal activity against Trichophyton mentagrophytes var. erinacei NCPF 375 after 7 days by microbroth dilution method; details: NCPF 375, 168 h, read-out: MIC100
[11] = Mycobacterium tuberculosis, H37Rv ATCC 27294

| SMILES | inhibition (INH) [1] [%] | MIC ([1]; Mycobacterium tuberculosis, H37Rv ATCC 27294, read-out: MIC100) [µg/mL] | MIC [2] [µg/mL] | MIC [3] [µg/mL] | MIC [4] [µg/mL] | MIC [5] [µg/mL] | MIC [6] [µg/mL] | MIC [7] [µg/mL] | MIC [8] [µg/mL] | MIC [9] [µg/mL] | inhibition [1] | MIC90 [1, 11] [µg/mL] | MIC [10] [µg/mL] |
| --- | --- | --- | --- | --- | --- | --- | --- | --- | --- | --- | --- | --- | --- |
| CO[C@H]1/C=C/O[C@@]2(C)Oc3c(C)c(O)c4c(O)c(c(/C=N/N5CCN(C)CC5)c(O)c4c3C2=O)NC(=O)/C(C)=C\C=C\[C@H](C)[C@H](O)[C@@H](C)[C@@H](O)[C@@H](C)[C@H](OC(C)=O)[C@@H]1C [RIFAMPIN] | 97 | 0.25 (≈ 0.304 µM) |  |  |  |  |  |  |  |  |  |  |  |
| CCCCn1c(Cc2csc3nc(-c4ccc(Br)cc4)cn23)n[nH]c1=S |  |  | 32 (≈ 71.4 µM) | 64 (≈ 143 µM) | 32 (≈ 71.4 µM) | 32 (≈ 71.4 µM) | 64 (≈ 143 µM) | 64 (≈ 143 µM) | 32 (≈ 71.4 µM) | 32 (≈ 71.4 µM) | inactive | > 6.25 | 32 (≈ 71.4 µM) |
| CCn1c(Cc2csc3nc(-c4ccc(Br)cc4)cn23)n[nH]c1=S |  |  | 64 (≈ 152 µM) | > 64 | 64 (≈ 152 µM) | 32 (≈ 76.1 µM) | 32 (≈ 76.1 µM) | 32 (≈ 76.1 µM) | 16 (≈ 38.1 µM) | 8 (≈ 19 µM) | inactive | > 6.25 | 16 (≈ 38.1 µM) |
| CNc1nnc(Cc2csc3nc(-c4ccc(Br)cc4)cn23)s1 |  |  | > 64 | > 64 | > 64 | 32 (≈ 78.8 µM) | 16 (≈ 39.4 µM) | 16 (≈ 39.4 µM) | 16 (≈ 39.4 µM) | 8 (≈ 19.7 µM) |  |  | 16 (≈ 39.4 µM) |
| S=c1[nH]nc(Cc2csc3nc(-c4ccc(Br)cc4)cn23)n1-c1ccc(Br)cc1 |  |  | > 64 | > 64 | > 64 | 64 (≈ 117 µM) | 32 (≈ 58.5 µM) | 64 (≈ 117 µM) | 64 (≈ 117 µM) | 32 (≈ 58.5 µM) | inactive | > 6.25 | 64 (≈ 117 µM) |
| CCCn1c(Cc2csc3nc(-c4ccc(Br)cc4)cn23)n[nH]c1=S |  |  | 64 (≈ 147 µM) | > 64 | 64 (≈ 147 µM) | 32 (≈ 73.7 µM) | 64 (≈ 147 µM) | 64 (≈ 147 µM) | 16 (≈ 36.8 µM) | 8 (≈ 18.4 µM) | inactive | > 6.25 | 16 (≈ 36.8 µM) |
| CCNc1nnc(Cc2csc3nc(-c4ccc(Br)cc4)cn23)s1 |  |  | 64 (≈ 152 µM) | 64 (≈ 152 µM) | 32 (≈ 76.1 µM) | 64 (≈ 152 µM) | 64 (≈ 152 µM) | 32 (≈ 76.1 µM) | 16 (≈ 38.1 µM) | 8 (≈ 19 µM) |  |  | 16 (≈ 38.1 µM) |
| C[C@@H]1[C@H](O)[C@@H](C)/C=C/C=C/C=C/C=C/C=C/C=C/C=C/[C@H](O[C@@H]2O[C@H](C)[C@@H](O)[C@H](N)[C@@H]2O)C[C@@H]2O[C@](O)(C[C@@H](O)C[C@@H](O)[C@H](O)CC[C@@H](O)C[C@@H](O)CC(=O)O[C@H]1C)C[C@H](O)[C@H]2C(=O)O [AMPHOTERICIN B] |  |  |  |  |  |  |  |  | 0.5 (≈ 0.541 µM) | 0.25 (≈ 0.271 µM) |  |  | 0.5 (≈ 0.541 µM) |
| Cn1c(Cc2csc3nc(-c4ccc(Br)cc4)cn23)n[nH]c1=S |  |  | > 64 | > 64 | > 64 | 32 (≈ 78.8 µM) | 32 (≈ 78.8 µM) | 32 (≈ 78.8 µM) | 16 (≈ 39.4 µM) | 16 (≈ 39.4 µM) | inactive | > 6.25 | 8 (≈ 19.7 µM) |
| Cc1ccc(-n2c(Cc3csc4nc(-c5ccc(Br)cc5)cn34)n[nH]c2=S)cc1 | 4 |  | 64 (≈ 133 µM) | 64 (≈ 133 µM) | 64 (≈ 133 µM) | 16 (≈ 33.2 µM) | 16 (≈ 33.2 µM) | 16 (≈ 33.2 µM) | 16 (≈ 33.2 µM) | 16 (≈ 33.2 µM) |  | > 6.25 | 16 (≈ 33.2 µM) |
| C=CCn1c(Cc2csc3nc(-c4ccc(Br)cc4)cn23)n[nH]c1=S | 1 |  | > 64 | > 64 | > 64 | 64 (≈ 148 µM) | 64 (≈ 148 µM) | 64 (≈ 148 µM) | 64 (≈ 148 µM) | 32 (≈ 74 µM) |  | > 6.25 | 64 (≈ 148 µM) |
| CCC(C)n1ncn(-c2ccc(N3CCN(c4ccc(OCC5COC(Cn6cncn6)(c6ccc(Cl)cc6Cl)O5)cc4)CC3)cc2)c1=O (configuration not stated) [ITRACONAZOLE] |  |  |  |  |  | 0.12 (≈ 0.17 µM) | 0.06 (≈ 0.085 µM) | 0.12 (≈ 0.17 µM) |  |  |  |  |  |
| S=c1[nH]nc(Cc2csc3nc(-c4ccc(Br)cc4)cn23)n1-c1ccc(Cl)cc1 |  |  | > 64 | > 64 | > 64 | 64 (≈ 127 µM) | > 64 | 64 (≈ 127 µM) | 32 (≈ 63.6 µM) | 32 (≈ 63.6 µM) | inactive | > 6.25 | 32 (≈ 63.6 µM) |
| S=c1[nH]nc(Cc2csc3nc(-c4ccc(Br)cc4)cn23)n1-c1ccccc1 | 3 |  | 64 (≈ 137 µM) | > 64 | > 64 | 32 (≈ 68.3 µM) | 32 (≈ 68.3 µM) | 32 (≈ 68.3 µM) | 32 (≈ 68.3 µM) | 16 (≈ 34.2 µM) |  | > 6.25 | 32 (≈ 68.3 µM) |
| C[C@H]1COc2c(N3CCN(C)CC3)c(F)cc3c(=O)c(C(=O)O)cn1c23.C[C@H]1COc2c(N3CCN(C)CC3)c(F)cc3c(=O)c(C(=O)O)cn1c23.O [LEVOFLOXACIN] |  |  | 0.12 | 0.5 |  |  |  |  |  |  |  |  |  |
